Data set [1] is described as follows: Polymorph stability by PXRD. The data set is classed as physicochemical. Conditions: 40 °C/75% RH, 1 month open container and 3 months closed container. On the procedure:
PXRD patterns were measured at room temperature using a D8 Advance with a DAVINCI X-ray diffractometer (Bruker AXS GmbH, Karlsruhe, Germany) equipped with a Ni-filtered Cu-Kα radiation (λ = 1.54056 Å) and a high speed LynxEye detector. The powder samples were loaded onto a quartz holder and scanned over a range of 4–40° at a scanning rate of 6°/min.
The polymorphism of ABN401 was also investigated with physical stresses by heat and humidity.

Data set [2] is described as follows: Equilibrium solubility at different pHs and excipients by HPLC. In kind it is physicochemical. Conditions: thermodynamic from solid. On the procedure:
(§1) Solutions at pH values of 1 to 12 were prepared using HCl and NaOH. At first, 10^−1 N, 10^−2 N, 10^−3 N, 10^−4 N, 10^−5 N, and 10^−6 N of HCl and NaOH solutions were prepared and their pH values were measured with a pH meter (Metrohm 827 pH lab, Zurich, Switzerland). One milliliter of the 10^−4 N, 10^−5 N, and 10^−6 N of HCl and NaOH solutions was withdrawn and diluted in a 100 mL flask for more coordination. In each prepared solution (n = 3), excess ABN401 was dissolved and mixed for 24 h. All samples were centrifuged for 1 min at 12,000 rpm. The pH solubility of ABN401 was analyzed by HPLC and the pKa was determined by plotting a graph of log(solubility) against pH.
An HPLC system (Shimadzu LC-20, Shimadzu, Kyoto, Japan) was used to analyze the solubility, dissolution profile, and degradation products as well as to determine the storage stability of ABN401. The wavelength of the UV detector was set at 282 nm. For quantification analysis, the Agilent Eclipse Plus C18 (5 μm, 4.6 × 150 mm) (Agilent technologies, Santa Clara, CA, USA) was used and maintained at 30 °C. The mobile phase was a mixture of acetonitrile and 50 mM acetate buffer at pH 5.0 at a volume ratio of 50 to 50 (v/v %). The flow rate of the mobile phase was 0.5 mL/min and the injection volume was 10 μL. A Kromasil C8 (5 μm, 4.6 × 250 mm) column was used for qualification analysis to observe the impurity profile during the storage stability test. The following gradient was applied: 0–20 min, 80% acetonitrile and 20% acetate buffer to 20% acetonitrile and 80% acetate buffer, maintained up to 25 min; 25– 28 min, back to 80% acetonitrile and 20% acetate buffer, maintained up to 35 min. The flow rate of the mobile phase was 1 mL/min and the injection volume was 10 μL.
The solubility of ABN401 in two different acidic buffers (i.e., acetate and citrate) were analyzed at three different pH values: 4.0, 4.5, and 5.0 (Table 2). […] Different concentrations of PEG400, cremophor EL, and polysorbate 80 were also evaluated as co-solvents to ABN401 in 0.1 M acetate buffer at pH 4.0 to investigate the solubility enhancement. […] Therefore, 20% PEG400 in 0.1 M sodium acetate was selected as an oral gavage formulation and intravenous solution for in vivo studies. A short storage stability test was performed for 8 days in a cold chamber to determine the concentration recovery yields at low and high concentrations, which were 0.03 mg/mL and 133 mg/mL, respectively. […] As a result, pH 4.0 yielded the highest percentage recovery in both low and high concentrations (Table 3).

Details of data set [3]: method as in doi:10.1016/j.dmpk.2016.10.205. Conditions: rats; cited from earlier work.
Data set [4] in a line: pH solubility and pKa determination. In kind it is physicochemical. Conditions: for solubility at 24 h: aqueous HCl/NaOH solution, aqueous buffer, thermodynamic from solid. How it is done: as §1

Molecules are shown by their SMILES. In brackets after ≈: the same amount, converted by molar mass.

For orientation: solubility means the dissolved amount per volume that the medium holds. The term pKa denotes the pH at which an ionisable group is half protonated.

As for `CN1CCN(Cc2ccc(-c3cnc(N4CCOC(Cn5nnc6ncc(-c7cnn(C)c7)nc65)C4)nc3)cc2)CC1` (stereo not drawn) [ABN401], the change in polymorph result in data set [1] is recorded as “no change in its polymorph”. For the same compound, the solubility at 24 h in data set [2] (20% PEG 400 in 0.1 M acetate buffer, aqueous with cosolvent or surfactant or cyclodextrin, PEG 400 (20 %), co-solvent in 0.1 M acetate buffer pH 4.0) was 8010 µg/mL (≈ 14.1 mM); in data set [2] (40% PEG 400 in 0.1 M acetate buffer, aqueous with cosolvent or surfactant or cyclodextrin, PEG 400 (40 %), co-solvent in 0.1 M acetate buffer pH 4.0), 8800 µg/mL (≈ 15.5 mM); in data set [2] (60% PEG 400 in 0.1 M acetate buffer, aqueous with cosolvent or surfactant or cyclodextrin, PEG 400 (60 %), co-solvent in 0.1 M acetate buffer pH 4.0) it was 9480 µg/mL (≈ 16.7 mM); in data set [2] (80% PEG 400 in 0.1 M acetate buffer, aqueous with cosolvent or surfactant or cyclodextrin, PEG 400 (80 %), co-solvent in 0.1 M acetate buffer pH 4.0), 12600 µg/mL (≈ 22.1 mM); in data set [2] (aqueous buffer, 0.1 M acetate buffer (pH 4.0)), 7140 µg/mL (≈ 12.6 mM); in data set [2] (aqueous buffer, 0.1 M acetate buffer (pH 4.5)) it was 2290 µg/mL (≈ 4.04 mM). For the same compound, the solubility at 24 h in data set [2] (aqueous buffer, 0.1 M acetate buffer (pH 5.0)) was determined as 560 µg/mL (≈ 0.988 mM); in data set [2] (aqueous buffer, 0.1 M citrate buffer (pH 4.0)), 60 µg/mL (≈ 0.106 mM); in data set [2] (aqueous buffer, 0.1 M citrate buffer (pH 4.5)) it was 30 µg/mL (≈ 0.0529 mM); in data set [2] (aqueous buffer, 0.1 M citrate buffer (pH 5.0)), 20 µg/mL (≈ 0.0353 mM); in data set [2] (aqueous buffer, 1× PBS (pH 7.4)), 10 µg/mL (≈ 0.0176 mM); in data set [2] (hydrochloric acid solution, aqueous buffer, Hydrochloric (pH 2.5)), 26000 µg/mL (≈ 45.8 mM). The solubility at 24 h in data set [2] (hydrochloric acid solution, aqueous buffer, Hydrochloric (pH 5.0)) is 3920 µg/mL (≈ 6.92 mM); in data set [2] (organic solvent or mixture, Cremophor EL (100 %)), 14100 µg/mL (≈ 24.9 mM); in data set [2] (organic solvent or mixture, PEG 400 (100 %)), 15500 µg/mL (≈ 27.3 mM); in data set [2] (organic solvent or mixture, Polysorbate 80 (100 %)), 8460 µg/mL (≈ 14.9 mM); in data set [4] (above neutral pH) it was no more than 10 µg/mL; in data set [4] (pH 2.28 (highest)) it was 26900 µg/mL (≈ 47.4 mM). Also, the absolute bioavailability in data set [3] is on record as 45%. In addition, the pKa at 24 h in data set [4] (aqueous HCl and NaOH solutions, pH 1 to 12, from plot of log(solubility) against pH, read-out: apparent pKa) amounted to 7.49.

(Values after article PMC7076440, “New Preclinical Development of a c-Met Inhibitor and Its Combined Anti-Tumor Effect in c-Met-Amplified NSCLC” (Pharmaceutics, 2020).)
